# From ChEMBL document CHEMBL1201862, “PubChem BioAssay data set” (2004)
# Active and inactive are the calls of the source.
# Legend:
# BJ [1] = assay: BJ-TERT fibroblast viability loss – cell-based, RAS-independent, luminescence, dose response (AID 1933); format: functional; conditions: Homo sapiens
# [2] = biological target: T1, Heat shock factor protein 1 (Mus musculus, UniProt P38532); assay: decrease of HSF1-responsive luciferase luminescence – cell-based, NIH3T3, dose retest, confirmation (AID 2382); format: functional;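 note: NIH3T3 fibroblasts with HSF1-driven luciferase reporter stressed by proteasome inhibitor MG132; luminescence from HSF1-driven luciferase expression after 8 hours of MG132 stress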
# T1 sequence (P38532 whole entry): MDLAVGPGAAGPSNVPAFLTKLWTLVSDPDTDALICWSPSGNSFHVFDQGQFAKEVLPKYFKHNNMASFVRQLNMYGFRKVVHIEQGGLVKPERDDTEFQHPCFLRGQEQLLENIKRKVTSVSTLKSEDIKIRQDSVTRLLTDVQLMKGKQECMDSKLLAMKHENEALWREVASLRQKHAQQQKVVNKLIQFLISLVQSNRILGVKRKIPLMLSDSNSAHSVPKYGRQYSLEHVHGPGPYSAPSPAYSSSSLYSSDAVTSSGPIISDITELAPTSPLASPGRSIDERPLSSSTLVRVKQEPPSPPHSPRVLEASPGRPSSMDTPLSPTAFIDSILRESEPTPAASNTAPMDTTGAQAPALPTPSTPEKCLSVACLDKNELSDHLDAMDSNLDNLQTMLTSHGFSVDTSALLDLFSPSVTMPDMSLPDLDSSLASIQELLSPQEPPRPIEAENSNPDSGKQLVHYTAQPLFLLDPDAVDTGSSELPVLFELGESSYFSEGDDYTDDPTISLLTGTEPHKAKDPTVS
# BJ [3] = assay: cells; format: functional, cell-based; conditions: Homo sapiens
# BJ [4] = assay: BJ-TERT-LT-ST fibroblast viability loss – cell-based, RAS-independent, luminescence, dose response (AID 1935); format: functional; conditions: Homo sapiens;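 note: BJ fibroblasts immortalized with TERT plus LT and ST oncogenes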
# [5] = DRD fibroblast viability loss – cell-based, non-viral oncogenic, luminescence, dose response (AID 1934); format: functional; conditions: Homo sapiens
# BJ [6] = assay: growth inhibition of engineered Ras-driven BJ cells – cell-based, alamar blue fluorescence, cherrypicked samples, dose response (AID 2631); format: functional; conditions: Homo sapiens;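 note: confirmatory dose-response assay in RAS-dependent BJ fibroblasts engineered with TERT, LT and ST, with cytotoxicity read by fluorescence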
# Mucolipin-3 = biological target: T2, Mucolipin-3 (Homo sapiens, UniProt Q8TDD5); assay: Dose response cell-based high-throughput screening assay for agonists of the transient receptor potential channel ML3 (TRPML3). [Related pubchem assays: 1526, 1424, 1448 ]; format: functional
# T2 sequence (Q8TDD5 whole entry): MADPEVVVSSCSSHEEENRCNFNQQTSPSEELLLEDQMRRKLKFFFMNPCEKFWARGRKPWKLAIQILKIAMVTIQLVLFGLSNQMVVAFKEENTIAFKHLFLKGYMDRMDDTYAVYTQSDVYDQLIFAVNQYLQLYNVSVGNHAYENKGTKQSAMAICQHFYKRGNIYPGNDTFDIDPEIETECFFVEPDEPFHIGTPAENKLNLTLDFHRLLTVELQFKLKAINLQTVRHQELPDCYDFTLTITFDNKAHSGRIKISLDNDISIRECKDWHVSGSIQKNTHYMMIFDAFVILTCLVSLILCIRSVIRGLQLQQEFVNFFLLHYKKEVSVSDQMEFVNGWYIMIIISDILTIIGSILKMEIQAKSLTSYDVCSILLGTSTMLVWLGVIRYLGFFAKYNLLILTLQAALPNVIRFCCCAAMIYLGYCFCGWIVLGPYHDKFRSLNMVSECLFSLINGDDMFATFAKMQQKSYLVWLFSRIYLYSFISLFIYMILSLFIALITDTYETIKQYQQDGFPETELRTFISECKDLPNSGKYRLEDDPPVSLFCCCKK
# Ion channel NompC = Ion channel NompC (Danio rerio, UniProt Q7T1G6); assay: Fluorescence counterscreen assay for TRPML3 agonists: dose response cell-based high-throughput screening assay to identify agonists of the transient receptor potential channel N1 (TRPN1). [Related pubchem assays: 1526, 1424, 1448 ]; format: functional
# Sequence of Ion channel NompC (Q7T1G6 whole entry): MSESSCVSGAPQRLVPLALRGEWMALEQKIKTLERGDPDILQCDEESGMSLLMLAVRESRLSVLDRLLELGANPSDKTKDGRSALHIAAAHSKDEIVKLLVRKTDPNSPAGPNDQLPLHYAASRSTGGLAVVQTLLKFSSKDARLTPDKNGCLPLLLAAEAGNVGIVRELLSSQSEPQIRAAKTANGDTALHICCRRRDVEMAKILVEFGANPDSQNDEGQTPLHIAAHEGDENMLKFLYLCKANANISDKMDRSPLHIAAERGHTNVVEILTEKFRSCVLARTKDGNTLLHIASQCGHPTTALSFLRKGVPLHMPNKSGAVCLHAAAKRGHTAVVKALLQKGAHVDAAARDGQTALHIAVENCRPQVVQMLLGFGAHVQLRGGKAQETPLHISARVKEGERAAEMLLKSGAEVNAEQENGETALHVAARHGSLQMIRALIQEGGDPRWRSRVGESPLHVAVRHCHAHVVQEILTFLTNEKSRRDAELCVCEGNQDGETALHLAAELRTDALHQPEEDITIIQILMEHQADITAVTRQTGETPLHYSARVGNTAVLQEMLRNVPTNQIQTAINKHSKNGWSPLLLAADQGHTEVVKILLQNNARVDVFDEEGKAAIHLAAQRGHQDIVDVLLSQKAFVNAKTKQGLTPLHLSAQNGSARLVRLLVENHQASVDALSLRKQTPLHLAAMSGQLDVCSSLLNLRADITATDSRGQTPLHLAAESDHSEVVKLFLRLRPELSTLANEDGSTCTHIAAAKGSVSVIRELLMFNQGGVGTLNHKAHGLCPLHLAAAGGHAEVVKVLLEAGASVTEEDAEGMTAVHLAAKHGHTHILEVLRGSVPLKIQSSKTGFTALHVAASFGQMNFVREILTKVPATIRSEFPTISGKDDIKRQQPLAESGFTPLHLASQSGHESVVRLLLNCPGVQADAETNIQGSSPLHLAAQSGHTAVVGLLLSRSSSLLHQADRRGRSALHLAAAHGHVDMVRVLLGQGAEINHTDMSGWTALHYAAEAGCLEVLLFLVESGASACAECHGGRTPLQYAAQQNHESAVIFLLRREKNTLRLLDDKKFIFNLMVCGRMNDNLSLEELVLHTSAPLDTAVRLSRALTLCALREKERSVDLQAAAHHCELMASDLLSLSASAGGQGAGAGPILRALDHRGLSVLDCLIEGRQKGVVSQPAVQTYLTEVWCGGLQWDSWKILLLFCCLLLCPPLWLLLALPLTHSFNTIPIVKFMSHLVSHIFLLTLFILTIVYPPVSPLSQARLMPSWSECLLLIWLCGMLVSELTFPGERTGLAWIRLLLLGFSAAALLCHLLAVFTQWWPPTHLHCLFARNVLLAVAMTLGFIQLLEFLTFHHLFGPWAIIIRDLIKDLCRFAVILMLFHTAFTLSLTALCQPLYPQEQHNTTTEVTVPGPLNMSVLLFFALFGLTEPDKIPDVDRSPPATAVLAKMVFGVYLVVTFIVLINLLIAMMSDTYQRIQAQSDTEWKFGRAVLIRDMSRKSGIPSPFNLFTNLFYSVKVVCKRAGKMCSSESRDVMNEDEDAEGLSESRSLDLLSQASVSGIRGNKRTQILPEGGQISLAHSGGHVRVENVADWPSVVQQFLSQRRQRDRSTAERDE
# HEK293 [7] = assay: cells; conditions: Homo sapiens
# HEK293 [8] = assay: cells; conditions: Homo sapiens; remark: listed apart in the source
# [9] = biological target: T3, Ubiquitin-conjugating enzyme E2 N (Homo sapiens, UniProt P61088); format: functional;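 note: Dose-response confirmation in a TR-FRET assay detecting UBC13-driven polyubiquitin chain formation, inhibition measured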
# T3 sequence (P61088 whole entry): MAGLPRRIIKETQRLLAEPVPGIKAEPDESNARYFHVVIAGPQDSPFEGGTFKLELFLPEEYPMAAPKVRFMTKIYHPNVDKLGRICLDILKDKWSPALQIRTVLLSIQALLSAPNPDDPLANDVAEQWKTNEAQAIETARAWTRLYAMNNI
# Vero = assay: cells; format: functional; conditions: Chlorocebus sabaeus
# [10] = biological target: Dual specificity tyrosine-phosphorylation-regulated kinase 1A (Rattus norvegicus, UniProt Q63470); format: biochemical, Homo sapiens
# [11] = biological target: T4, Short transient receptor potential channel 4 (Mus musculus, UniProt Q9QUQ5); assay: calcium entry via TRPC4 opening agents – cell-based, HEK293 TRPC4/mu-opioid, Fluo-4 calcium, dose response (AID 434937); format: functional
# T4 sequence (Q9QUQ5 whole entry): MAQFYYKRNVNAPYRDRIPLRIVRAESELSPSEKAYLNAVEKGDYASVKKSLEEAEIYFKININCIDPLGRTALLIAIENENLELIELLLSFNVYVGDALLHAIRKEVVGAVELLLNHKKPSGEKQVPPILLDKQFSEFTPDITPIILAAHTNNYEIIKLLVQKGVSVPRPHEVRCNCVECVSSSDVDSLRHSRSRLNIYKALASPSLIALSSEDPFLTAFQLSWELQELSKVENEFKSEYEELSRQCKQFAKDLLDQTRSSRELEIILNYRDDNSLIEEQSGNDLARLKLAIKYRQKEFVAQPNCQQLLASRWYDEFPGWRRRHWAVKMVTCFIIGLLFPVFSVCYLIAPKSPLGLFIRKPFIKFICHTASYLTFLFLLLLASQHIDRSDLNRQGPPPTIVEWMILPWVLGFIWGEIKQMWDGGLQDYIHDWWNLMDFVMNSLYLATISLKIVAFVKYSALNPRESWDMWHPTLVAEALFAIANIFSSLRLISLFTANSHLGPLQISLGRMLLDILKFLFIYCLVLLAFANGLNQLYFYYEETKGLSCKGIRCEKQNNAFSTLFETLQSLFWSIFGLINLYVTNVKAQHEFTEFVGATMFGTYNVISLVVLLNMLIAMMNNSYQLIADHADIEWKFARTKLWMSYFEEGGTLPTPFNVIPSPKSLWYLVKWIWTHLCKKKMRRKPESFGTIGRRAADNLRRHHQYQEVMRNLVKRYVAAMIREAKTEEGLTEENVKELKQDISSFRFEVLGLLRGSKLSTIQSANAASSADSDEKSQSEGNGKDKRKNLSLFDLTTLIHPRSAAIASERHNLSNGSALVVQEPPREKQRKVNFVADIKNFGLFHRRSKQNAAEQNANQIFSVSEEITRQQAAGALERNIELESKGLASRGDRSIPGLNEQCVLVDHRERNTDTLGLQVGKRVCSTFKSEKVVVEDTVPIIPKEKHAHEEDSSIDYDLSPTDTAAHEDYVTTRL
# [12] = biological target: Delta-type opioid receptor (Homo sapiens, UniProt P41143); assay: Counterscreen for agonists of heterodimerization of the mu 1 (OPRM1) and delta 1 (OPRD1) opioid receptors: Luminescence-based cell-based high throughput dose response assay to identify agonists of OPRD1 homodimerization. [Related pubchem assays (depositor defined):AID504326, AID504355, AID504692, AID504904, AID504905]; format: functional
# Sequence of Delta-type opioid receptor (P41143 whole entry): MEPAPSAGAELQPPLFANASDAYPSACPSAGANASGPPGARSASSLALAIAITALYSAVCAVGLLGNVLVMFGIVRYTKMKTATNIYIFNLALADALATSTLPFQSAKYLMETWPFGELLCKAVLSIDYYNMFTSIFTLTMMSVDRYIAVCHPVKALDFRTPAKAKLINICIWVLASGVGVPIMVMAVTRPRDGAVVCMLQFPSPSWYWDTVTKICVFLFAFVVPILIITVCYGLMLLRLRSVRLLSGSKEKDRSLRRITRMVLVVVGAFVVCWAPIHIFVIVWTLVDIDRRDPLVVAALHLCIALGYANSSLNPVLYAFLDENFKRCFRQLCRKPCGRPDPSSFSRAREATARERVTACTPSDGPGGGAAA
# Mu-type opioid receptor = Mu-type opioid receptor (Homo sapiens, UniProt P35372); assay: Counterscreen for agonists of heterodimerization of the mu 1 (OPRM1) and delta 1 (OPRD1) opioid receptors: Luminescence-based cell-based high throughput dose response assay to identify agonists of OPRM1 homodimerization.; format: functional;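 note: U2OS cells expressing OPRM1 and beta-arrestin as split beta-galactosidase partners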
# Sequence of Mu-type opioid receptor (P35372 whole entry): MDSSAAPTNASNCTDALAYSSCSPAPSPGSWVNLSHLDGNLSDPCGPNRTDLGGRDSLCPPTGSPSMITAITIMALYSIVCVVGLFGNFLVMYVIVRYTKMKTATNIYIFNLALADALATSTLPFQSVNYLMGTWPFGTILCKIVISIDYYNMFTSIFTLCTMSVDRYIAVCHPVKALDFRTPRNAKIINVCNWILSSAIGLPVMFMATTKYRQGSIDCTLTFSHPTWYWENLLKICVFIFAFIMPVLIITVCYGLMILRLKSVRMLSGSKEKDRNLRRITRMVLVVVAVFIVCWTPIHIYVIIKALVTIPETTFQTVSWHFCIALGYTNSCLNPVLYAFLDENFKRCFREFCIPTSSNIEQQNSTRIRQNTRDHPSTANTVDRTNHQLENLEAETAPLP
# [13] = biological target: 5-hydroxytryptamine receptor 5A (Homo sapiens, UniProt P47898); assay: Counterscreen for agonists of OPRM1-OPRD1 heterodimerization: luminescence-based cell-based high throughput dose response assay to identify agonists of 5-hydroxytryptamine (serotonin) 5A receptor (HTR5A). [Related pubchem assays (depositor defined):AID504326, AID504355, AID504692, AID504904, AID504905]; format: functional
# Sequence of 5-hydroxytryptamine receptor 5A (P47898 whole entry): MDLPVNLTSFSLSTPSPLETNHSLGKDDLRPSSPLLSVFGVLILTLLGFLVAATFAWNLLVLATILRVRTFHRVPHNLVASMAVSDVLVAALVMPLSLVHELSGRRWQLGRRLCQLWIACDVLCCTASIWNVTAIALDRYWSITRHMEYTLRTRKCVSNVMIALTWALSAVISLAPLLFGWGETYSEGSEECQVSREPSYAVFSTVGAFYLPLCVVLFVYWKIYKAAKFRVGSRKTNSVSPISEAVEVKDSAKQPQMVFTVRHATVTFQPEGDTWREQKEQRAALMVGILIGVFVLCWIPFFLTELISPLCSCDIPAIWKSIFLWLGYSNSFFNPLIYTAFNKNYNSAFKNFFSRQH
# Escherichia coli = assay: microbe, parasite or virus in culture
# [14] = viability of uninfected HEp-2 cells – cell-based, HTS, cytotoxicity control for RSV inhibitor project, dose response (AID 2410); format: functional; conditions: human respiratory syncytial virus
# Cytochrome P450 1A2 = biological target: T5, Cytochrome P450 1A2 (Homo sapiens, UniProt P05177);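 note: PubChem cytochrome P450 panel assay, CYP1A2 panel member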
# T5 sequence (P05177 whole entry): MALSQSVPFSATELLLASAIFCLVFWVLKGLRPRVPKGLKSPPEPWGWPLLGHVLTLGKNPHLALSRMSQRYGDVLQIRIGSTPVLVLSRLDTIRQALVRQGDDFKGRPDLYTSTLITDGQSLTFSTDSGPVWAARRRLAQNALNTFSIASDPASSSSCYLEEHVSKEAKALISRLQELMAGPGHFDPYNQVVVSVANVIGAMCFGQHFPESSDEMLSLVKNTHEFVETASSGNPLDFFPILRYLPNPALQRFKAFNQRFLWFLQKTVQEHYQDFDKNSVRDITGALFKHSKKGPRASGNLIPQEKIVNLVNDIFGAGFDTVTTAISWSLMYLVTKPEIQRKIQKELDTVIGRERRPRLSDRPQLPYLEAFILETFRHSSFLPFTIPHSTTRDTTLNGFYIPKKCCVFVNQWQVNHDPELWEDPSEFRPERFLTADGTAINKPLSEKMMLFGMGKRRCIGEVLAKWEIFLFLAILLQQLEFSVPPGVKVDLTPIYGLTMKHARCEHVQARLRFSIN
compound,measurement,setting,value
Nc1nc(CCl)nc(Nc2cccc3ccccc23)n1,EC50,BJ [1],0.288 µM (active)
same,EC50,[2],3.74 µM (active)
same,EC50,BJ [3],2.73 µM (inconclusive)
same,EC50,BJ [4],9.87 µM (inconclusive)
same,EC50,[5],1.98 µM (active)
same,EC50,BJ [6],6.34 µM (active)
COc1ccc(C(C)(C)C)cc1NC(=O)c1cc(S(=O)(=O)N(C)C)ccc1N1CCCC1,EC50,Mucolipin-3,> 29.9 µM (not active)
same,EC50,Ion channel NompC,> 29.9 µM (not active)
same,EC50,HEK293 [7],> 59.6 µM (inactive)
same,EC50,HEK293 [8],> 59.6 µM (inactive)
Cc1cccc(Nc2cc(C)c3c(O)cccc3n2)c1C,IC50,[9],> 20 µM (inactive)
same,CC50,Vero,> 25 µM (active)
same,AC50,[10],1.13 µM (active)
CN(C)C(CNC(=O)Cc1ccc(Br)cc1)c1ccccc1 (centres undefined),EC50,[11],0.105 µM (active)
same,EC50,[12],36.1 µM (inactive)
same,EC50,Mu-type opioid receptor,> 92.5 µM (inactive)
same,EC50,[13],> 92.5 µM (inactive)
O=C(Cn1ccc(C(F)(F)F)n1)Nc1ccc(S(=O)(=O)NCc2ccco2)cc1,AC50,Escherichia coli,38.6 µM (active)
CC(C)c1ccc(NC(=O)N(CCc2nc3ccccc3[nH]2)C2CCCC2)cc1,CC50,[14],35.4 µM (active)
same,EC50,[2],> 195 µM (not active)
same,EC50,[12],> 92.4 µM (inactive)
same,EC50,Mu-type opioid receptor,> 92.4 µM (inactive)
same,EC50,[13],> 92.4 µM (inactive)
same,AC50,Cytochrome P450 1A2,11.2 µM (inconclusive)
